Experimental data from PubChem BioAssay AID2060485 (Molecular Pharmacology Branch, DTP, NCI, 2025).
pIC50: −log10 of the molar value.

Tested on: A375 multi-cell spheroids with HUVEC/MSC, viability
Experiment: Anticancer human tumor A375 cell line growth inhibition [GQUAD];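 also: spheroids exposed to compounds for seven days before readout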
Details: for pIC50: curve of first compound; for viability, T/C: stronger effect = lower value
Text: DNA G-quadruplex Stabilizer Agents in Combinations in Complex Spheroids
A high-throughput screen of multi-cell type tumor spheroids was designed to identify active combinations of DNA G-quadruplex stabilizer agents and targeted small molecules. Complex spheroids include a stromal component modeled by human endothelial cells (HUVEC) and fibroblasts modeled by human mesenchymal stem cells (MSCs). The concentration ranges selected for each drug and investigational agent were based upon clinically achievable concentrations if the clinical Cmax of the agent was known.
Compounds. The drugs and investigational agents: pidnarulex (CX-5461; NSC782164), APTO-253 (NSC789042), BRACO-19 (NSC847499), peposertib (NSC802822), ceralasertib (NSC780249), elimusertib (NSC800525), camonsertib (NSC841442), AZD-1390 (NSC803789), olaparib (NSC753686), talazoparib (NSC767125), ART-558 (NSC835418), sotorasib (NSC818433), MRTX-1133 (NSC836407), SN-38 (NSC673596), topotecan (NSC609699), etoposide (NSC141540), doxorubicin (NSC123127), gemcitabine (NSC613327), 5-fluorouracil (NSC19893), paclitaxel (NSC125973), vemurafenib (NSC761431), panobinostat (NSC761190), R-306465 (JNJ-16241199; NSC773264), adavosertib (NSC754352), TP-3654 (NSC805149), carboplatin (NSC241240), KSQ-4279 (NSC840948), and staurosporine (NSC755774) were obtained from the National Cancer Institute (NCI) Developmental Therapeutics Program Chemical Repository (34). The FDA-approved anticancer drug set is available from the NCI Developmental Therapeutics Program. […] The stock solutions were prepared in dimethyl sulfoxide (DMSO, Sigma-Aldrich, St. Louis, MO, cat. D2650) at 800-fold the tested concentration and stored at -70 degrees C prior to their use. All drugs and investigational agents were tested over a range starting from a high concentration at or near the clinical Cmax and decreasing in half-log increments. If the clinical Cmax for an agent had not been determined, the highest concentration tested was 10 microM.
2.3 Cell Culture. All cells were maintained in an incubator at 37 degrees C and 5% CO2 with 95% humidity. The PDC lines were cultured according to standard operating procedures established by the NCI PDMR. All PDCs were thawed and cultured in Matrigel-coated flasks prepared with a working solution of 1X Ham's F-12 nutrient mix, without supplementation (Invitrogen, cat. 11765054), 100 U/mL penicillin-streptomycin (Invitrogen, cat. 15140122), and 2.5% Matrigel (Corning Inc., cat. 354248) for the first three passages. The 857933-349-R-J2-PDC line was cultured in 6C/Colon 1B media, which includes advanced DMEM/F-12 (Thermo Fisher Scientific, cat. 12634028), 10 mM HEPES (Thermo Fisher Scientific, cat. 15630080), 1X GlutaMAX supplement (Thermo Fisher Scientific, cat. 35050061), 0.1 mg/mL primocin (InvivoGen, cat. ant-pm-2), 10% defined fetal bovine serum, heat inactivated (HyClone Laboratories Inc., cat. SH30070.03HI), 50% L-WRN conditioned media (ATCC, cat. CRL-3276), 1.25 mM N-Acetyl-L-cysteine (Sigma-Aldrich, cat. A9165), 10 mM nicotinamide (Sigma-Aldrich, cat. N0636), 1X B-27 supplement (Thermo Fisher Scientific, cat. 17504044), 1X N-2 supplement (Thermo Fisher Scientific, cat. 17502048), 10 microM Y-27632 dihydrochloride (Tocris Bioscience, cat. 1254), and 50 ng/mL human EGF recombinant protein (Thermo Fisher Scientific, cat. PHG0311). The 485176-168-R4-J1-PDC line was cultured in Panc media, which includes all 6C/Colon 1B media components plus 100 ng/mL human FGF-10 (Thermo Fisher Scientific, cat. 100-26), 500 nM SB-431542 (Selleckchem, cat. S1067), and gastrin (Tocris, cat. 3006).
[…]

[1] = second compound 0.0316 µM, first compound 0.0316 µM
[2] = second compound 0.0316 µM, first compound 0.1 µM
[3] = second compound 0.0316 µM, first compound 0.316 µM
[4] = second compound 0.0316 µM, first compound 1 µM
[5] = second compound 0.0316 µM, first compound 3.16 µM
[6] = second compound 0.0316 µM, first compound 10 µM
[7] = second compound 0.1 µM, first compound 0.0316 µM
[8] = second compound 0.1 µM, first compound 0.1 µM
[9] = second compound 0.1 µM, first compound 0.316 µM
[10] = second compound 0.1 µM, first compound 1 µM
[11] = second compound 0.1 µM, first compound 3.16 µM
[12] = second compound 0.1 µM, first compound 10 µM
[13] = second compound 0.316 µM, first compound 0.0316 µM
[14] = second compound 0.316 µM, first compound 0.1 µM
[15] = second compound 0.316 µM, first compound 0.316 µM
[16] = second compound 0.316 µM, first compound 1 µM
[17] = second compound 0.316 µM, first compound 3.16 µM
[18] = second compound 0.316 µM, first compound 10 µM
[19] = second compound 1 µM, first compound 0.0316 µM
[20] = second compound 1 µM, first compound 0.1 µM
[21] = second compound 1 µM, first compound 0.316 µM
[22] = second compound 1 µM, first compound 1 µM
[23] = second compound 1 µM, first compound 3.16 µM
[24] = second compound 1 µM, first compound 10 µM
[25] = second compound 3.16 µM, first compound 0.0316 µM
[26] = second compound 3.16 µM, first compound 0.1 µM
[27] = second compound 3.16 µM, first compound 0.316 µM
[28] = second compound 3.16 µM, first compound 1 µM
[29] = second compound 3.16 µM, first compound 3.16 µM
[30] = second compound 3.16 µM, first compound 10 µM
[31] = second compound 10 µM, first compound 0.0316 µM
[32] = second compound 10 µM, first compound 0.1 µM
[33] = second compound 10 µM, first compound 0.316 µM
[34] = second compound 10 µM, first compound 1 µM
[35] = second compound 10 µM, first compound 3.16 µM
[36] = second compound 10 µM, first compound 10 µM

## CC1COCCN1c1cc(C2(O)CC3CCC(C2)O3)c2cnn(-c3ccn[nH]3)c2n1 (stereo unspecified) + Cc1[nH]c2ccc(F)cc2c1-c1nc2c3cccnc3c3ncccc3c2[nH]1
Second compound 0.0316 µM
  pIC50: 6.47
Second compound 0.1 µM
  pIC50: 6.45
Second compound 0.316 µM
  pIC50: 6.55
Second compound 1 µM
  pIC50: 6.68
Second compound 3.16 µM
  pIC50: > 7.50
Second compound 10 µM
  pIC50: > 7.50
[1]
  viability, T/C: 114%
[2]
  viability, T/C: 103%
[3]
  viability, T/C: 51.9%
[4]
  viability, T/C: 16.9%
[5]
  viability, T/C: 12.2%
[6]
  viability, T/C: 8.69%
[7]
  viability, T/C: 113%
[8]
  viability, T/C: 94.9%
[9]
  viability, T/C: 54%
[10]
  viability, T/C: 18%
[11]
  viability, T/C: 13.2%
[12]
  viability, T/C: 7.58%
[13]
  viability, T/C: 122%
[14]
  viability, T/C: 85%
[15]
  viability, T/C: 47.8%
[16]
  viability, T/C: 19.7%
[17]
  viability, T/C: 13.3%
[18]
  viability, T/C: 9.21%
[19]
  viability, T/C: 79.1%
[20]
  viability, T/C: 67.4%
[21]
  viability, T/C: 40.7%
[22]
  viability, T/C: 16.6%
[23]
  viability, T/C: 13.3%
[24]
  viability, T/C: 8.26%
[25]
  viability, T/C: 31.5%
[26]
  viability, T/C: 17.9%
[27]
  viability, T/C: 13.5%
[28]
  viability, T/C: 11.2%
[29]
  viability, T/C: 6.29%
[30]
  viability, T/C: 1.15%
[31]
  viability, T/C: 39%
[32]
  viability, T/C: 18.9%
[33]
  viability, T/C: 18.6%
[34]
  viability, T/C: 9.83%
[35]
  viability, T/C: 11.4%
[36]
  viability, T/C: 3.18%

## COc1ccc([C@@H](O)c2cc(-c3ncnc4cc(N5CCOCC5)ccc34)c(F)cc2Cl)nn1 + Cc1[nH]c2ccc(F)cc2c1-c1nc2c3cccnc3c3ncccc3c2[nH]1
Second compound 0.0316 µM
  pIC50: < 5.00
Second compound 0.1 µM
  pIC50: < 5.00
Second compound 0.316 µM
  pIC50: < 5.00
Second compound 1 µM
  pIC50: < 5.00
Second compound 3.16 µM
  pIC50: < 5.00
Second compound 10 µM
  pIC50: < 5.00
[1]
  viability, T/C: 105%
[2]
  viability, T/C: 108%
[3]
  viability, T/C: 103%
[4]
  viability, T/C: 126%
[5]
  viability, T/C: 100%
[6]
  viability, T/C: 77.5%
[7]
  viability, T/C: 106%
[8]
  viability, T/C: 102%
[9]
  viability, T/C: 105%
[10]
  viability, T/C: 112%
[11]
  viability, T/C: 96.6%
[12]
  viability, T/C: 85.6%
[13]
  viability, T/C: 103%
[14]
  viability, T/C: 112%
[15]
  viability, T/C: 105%
[16]
  viability, T/C: 110%
[17]
  viability, T/C: 95.3%
[18]
  viability, T/C: 87.9%
[19]
  viability, T/C: 106%
[20]
  viability, T/C: 112%
[21]
  viability, T/C: 109%
[22]
  viability, T/C: 113%
[23]
  viability, T/C: 98.2%
[24]
  viability, T/C: 68.1%
[25]
  viability, T/C: 101%
[26]
  viability, T/C: 96%
[27]
  viability, T/C: 101%
[28]
  viability, T/C: 79.1%
[29]
  viability, T/C: 77.2%
[30]
  viability, T/C: 50.4%
[31]
  viability, T/C: 113%
[32]
  viability, T/C: 107%
[33]
  viability, T/C: 122%
[34]
  viability, T/C: 97.2%
[35]
  viability, T/C: 78.2%
[36]
  viability, T/C: 56.3%

## O=C(c1cc(Cc2n[nH]c(=O)c3ccccc23)ccc1F)N1CCN(C(=O)C2CC2)CC1 + Cc1[nH]c2ccc(F)cc2c1-c1nc2c3cccnc3c3ncccc3c2[nH]1
Second compound 0.0316 µM
  pIC50: < 5.00
Second compound 0.1 µM
  pIC50: < 5.00
Second compound 0.316 µM
  pIC50: < 5.00
Second compound 1 µM
  pIC50: < 5.00
Second compound 3.16 µM
  pIC50: < 5.00
Second compound 10 µM
  pIC50: < 5.00
[1]
  viability, T/C: 100%
[2]
  viability, T/C: 88.9%
[3]
  viability, T/C: 86.7%
[4]
  viability, T/C: 102%
[5]
  viability, T/C: 110%
[6]
  viability, T/C: 80.6%
[7]
  viability, T/C: 101%
[8]
  viability, T/C: 97.4%
[9]
  viability, T/C: 86.7%
[10]
  viability, T/C: 103%
[11]
  viability, T/C: 96.1%
[12]
  viability, T/C: 91.5%
[13]
  viability, T/C: 92.2%
[14]
  viability, T/C: 105%
[15]
  viability, T/C: 105%
[16]
  viability, T/C: 94.8%
[17]
  viability, T/C: 111%
[18]
  viability, T/C: 83%
[19]
  viability, T/C: 96.2%
[20]
  viability, T/C: 95.5%
[21]
  viability, T/C: 102%
[22]
  viability, T/C: 102%
[23]
  viability, T/C: 117%
[24]
  viability, T/C: 74.7%
[25]
  viability, T/C: 80.5%
[26]
  viability, T/C: 78.7%
[27]
  viability, T/C: 84.3%
[28]
  viability, T/C: 73.4%
[29]
  viability, T/C: 74.7%
[30]
  viability, T/C: 61.6%
[31]
  viability, T/C: 94.1%
[32]
  viability, T/C: 90.5%
[33]
  viability, T/C: 105%
[34]
  viability, T/C: 90.8%
[35]
  viability, T/C: 91.3%
[36]
  viability, T/C: 72.1%
